From patent publication US20020137929A1, “1 - (3-heterocyclylphenyl) isothiourea, -isourea, -guanidine and -amidine herbicidal agents” (Intellectual Property Department, BASF Aktiengesellschaft, priority 1998, published 2002)

Assays:
[1] = test system: ECHCG (Barnyardgrass); experiment: Preemergence herbicidal evaluation; type: in vivo, Echinochloa crus-galli; conditions: 0.2500 kg/ha, rated 4-5 weeks after treatment
Description: (§1) Results of herbicide evaluation are expressed on a rating scale (0-9). The scale is based upon a visual observation of plant stand, vigor, malformation, size, chlorosis and overall plant appearance as compared with a control.
(§2) The preemergence herbicidal activity of the test compounds of the present invention is exemplified by the following tests in which the seeds of a variety of monocotyledonous and dicotyledonous plants are separately mixed with potting soil and planted on top of approximately one inch of soil in separate pint cups. After planting, the cups are sprayed with the selected aqueous acetone solution containing test compound in sufficient quantity to provide the equivalent of about 0.0156 to 0.500 kg per hectare of test compound per cup. The treated cups are then placed on greenhouse benches, watered and cared for in accordance with conventional greenhouse procedures. From four to five weeks after treatment, the tests are terminated and each cup is examined and rated according to the rating system provided in Example 37.
(§3) The compounds evaluated are reported by compound number given in Example 37.

[2] = test system: MOOVA (Monochoria); experiment: Preemergence weed control under flooded paddy conditions; type: in vivo, Monochoria vaginalis; conditions: rated 3-4 weeks after treatment
Method: as §1
(§4) Preemergence herbicidal activity under flooded paddy conditions is determined as follows: plant seeds or propagating organs are planted in the top 0.5 cm of silt loam soil in 32 oz. plastic containers with a diameter of 10.5 cm and no drainage holes. Water is added to these containers and maintained at 1.5 to 3 cm above the soil surface for the duration of the experiment. The test compounds are applied as aqueous/acetone mixtures 50/50 v/v pipetted directly into the flood water to give the equivalent of about 0.0313 to 0.500 kg/ha of active ingredient. The treated containers are placed on greenhouse benches and cared for in accordance with conventional greenhouse procedures. Three to four weeks after treatment, the test is terminated and each container is examined and herbicidal effect rated according to the rating system provided in Example 37. The compounds evaluated are reported by compound number given in Example 37.
(§5) Plant species employed in this example are reported by header abbreviation, common name and scientific name.

[3] = test system: ZEAMX (Corn, Field); experiment: Postemergence herbicidal evaluation; type: in vivo, Zea mays; conditions: postemergence
Method: (§6) In the tests, seedling plants are grown in jiffy flats for about two weeks. The test compounds are dispersed in 50/50 acetone/water mixtures containing 0.5% TWEEN®20, a polyoxyethylene sorbitan monolaurate surfactant of Atlas Chemical Industries, in sufficient quantities to provide the equivalent of about 0.0156 kg to 0.500 kg per hectare of active compound when applied to the plants through a spray nozzle operating at 40 psi for a predetermined time. After spraying, the plants are placed on greenhouse benches and are cared for in accordance with conventional greenhouse procedures. From four to five weeks after treatment, the seedling plants are examined and rated according to the rating system set forth below. Where more than one test is involved for a given compound, the data are averaged.
(§7) Plant species employed in these evaluations are reported by header abbreviation, common name and scientific name.
as §1

[4] = test system: CASOB (Sicklepod); experiment: Preemergence herbicidal evaluation; type: in vivo, Cassia obtusifolia; conditions: 0.2500 kg/ha, rated 4-5 weeks after treatment
Description: as §1, §2, §3

[5] = test system: AMBEL (Ragweed, Common); experiment: Preemergence herbicidal evaluation; type: in vivo, Ambrosia artemisifolia; conditions: 0.2500 kg/ha, rated 4-5 weeks after treatment
Description: as §1, §2, §3

[6] = test system: GLXMAW (Soybean, Williams); experiment: Postemergence herbicidal evaluation; type: in vivo, Glycine max, (L.) Merr. cv Williams; conditions: postemergence
Method: as §6, §7, §1

[7] = test system: GALAP (Galium); experiment: Preemergence herbicidal evaluation; type: in vivo, Galium aparine; conditions: 0.2500 kg/ha, rated 4-5 weeks after treatment
Description: as §1, §2, §3

[8] = test system: ORYSAT (Rice, Tebonnet); experiment: Postemergence herbicidal evaluation; type: in vivo, Oryza sativa, (L.) Tebonnet; conditions: postemergence
Method: as §6, §7, §1

[9] = test system: GLXMAW (Soybean, Williams); experiment: Preemergence herbicidal evaluation; type: in vivo, Glycine max, (L.) Merr. cv Williams; conditions: 0.2500 kg/ha, rated 4-5 weeks after treatment
Description: as §1, §2, §3

[10] = test system: ORYSAT (Rice, Tebonnet); experiment: Preemergence herbicidal evaluation; type: in vivo, Oryza sativa, (L.) Tebonnet; conditions: 0.2500 kg/ha, rated 4-5 weeks after treatment
Description: as §1, §2, §3

[11] = test system: ECHORC (Watergrass (Calif.)); experiment: Preemergence weed control under flooded paddy conditions; type: in vivo, Echinochloa oryzoides; conditions: rated 3-4 weeks after treatment
Method: as §1, §4, §5

[12] = test system: CYPIR (Rice Flatsedge); experiment: as above; type: in vivo, Cyperus iria; conditions: rated 3-4 weeks after treatment
Method: as §1, §4, §5

[13] = test system: AMBEL (Ragweed, Common); experiment: Postemergence herbicidal evaluation; type: in vivo, Ambrosia artemisifolia; conditions: postemergence
Method: as §6, §7, §1

[14] = test system: IPOHE (Morningglory, Ivyleaf); experiment: Preemergence herbicidal evaluation; type: in vivo, Ipomoea hederacea; conditions: 0.2500 kg/ha, rated 4-5 weeks after treatment
Description: as §1, §2, §3

[15] = test system: ECHCG (Barnyardgrass); experiment: Postemergence herbicidal evaluation; type: in vivo, Echinochloa crus-galli; conditions: postemergence
Method: as §6, §7, §1

[16] = test system: SETVI (Foxtail, Green); experiment: Preemergence herbicidal evaluation; type: in vivo, Setaria viridis; conditions: 0.2500 kg/ha, rated 4-5 weeks after treatment
Description: as §1, §2, §3

[17] = test system: GALAP (Galium); experiment: Postemergence herbicidal evaluation; type: in vivo, Galium aparine; conditions: postemergence
Method: as §6, §7, §1

[18] = test system: SETVI (Foxtail, Green); experiment: Postemergence herbicidal evaluation; type: in vivo, Setaria viridis; conditions: postemergence
Method: as §6, §7, §1

[19] = test system: CYPSE (Flatsedge); experiment: Preemergence weed control under flooded paddy conditions; type: in vivo, Cyperus serotinus; conditions: rated 3-4 weeks after treatment
Method: as §1, §4, §5

[20] = test system: ABUTH (Velvetleaf); experiment: Preemergence herbicidal evaluation; type: in vivo, Abutilon theophrasti; conditions: 0.2500 kg/ha, rated 4-5 weeks after treatment
Description: as §1, §2, §3

[21] = test system: TRZAWR (Wheat, Winter, cv Riband); experiment: Preemergence herbicidal evaluation; type: in vivo, Triticum aestivum; conditions: 0.2500 kg/ha, rated 4-5 weeks after treatment
Description: as §1, §2, §3

[22] = test system: CHEAL (Lambsquarters, Common); experiment: Postemergence herbicidal evaluation; type: in vivo, Chenopodium album; conditions: postemergence
Method: as §6, §7, §1

[23] = test system: ZEAMX (Corn, Field); experiment: Preemergence herbicidal evaluation; type: in vivo, Zea mays; conditions: 0.2500 kg/ha, rated 4-5 weeks after treatment
Description: as §1, §2, §3

[24] = test system: CHEAL (Lambsquarters, Common); experiment: Preemergence herbicidal evaluation; type: in vivo, Chenopodium album; conditions: 0.2500 kg/ha, rated 4-5 weeks after treatment
Description: as §1, §2, §3

[25] = test system: SAGPY (Arrowhead (Pygmaea)); experiment: Preemergence weed control under flooded paddy conditions; type: in vivo, Sagittaria pygmaea; conditions: rated 3-4 weeks after treatment
Method: as §1, §4, §5

[26] = test system: IPOHE (Morningglory, Ivyleaf); experiment: Postemergence herbicidal evaluation; type: in vivo, Ipomoea hederacea; conditions: postemergence
Method: as §6, §7, §1

[27] = test system: CASOB (Sicklepod); experiment: Postemergence herbicidal evaluation; type: in vivo, Cassia obtusifolia; conditions: postemergence
Method: as §6, §7, §1

[28] = test system: TRZAWR (Wheat, Winter, cv Riband); experiment: Postemergence herbicidal evaluation; type: in vivo, Triticum aestivum; conditions: postemergence
Method: as §6, §7, §1

[29] = test system: ABUTH (Velvetleaf); experiment: Postemergence herbicidal evaluation; type: in vivo, Abutilon theophrasti; conditions: postemergence
Method: as §6, §7, §1

CCOC(=O)CN1C(=O)CSC1=Nc1cc(N2C(=O)CC(C(F)(F)F)CC2=O)c(F)cc1Cl [Compound 169, Ethyl 2-{{2-chloro-5-[2,6-dioxo-4-(trifluoromethyl)piperidino]-4-fluorophenyl}imino}-4-oxo-3-thiazolidineacetate]
3.0: Preemergence herbicidal rating AMBEL [5] | Preemergence herbicidal rating GLXMAW [9] | Preemergence herbicidal rating IPOHE [14] | herbicidal rating CHEAL ([22]; rate 0.0313 kg/ha) | herbicidal effect rating, SAGPY ([25]; 0.2500 kg/ha) | herbicidal rating CASOB ([27]; rate 0.0625 kg/ha)
6.0: herbicidal effect rating, MOOVA ([2]; 0.0625 kg/ha) | herbicidal effect rating, MOOVA ([2]; 0.1250 kg/ha) | herbicidal rating ZEAMX ([3]; rate 0.0156 kg/ha) | herbicidal rating TRZAWR ([28]; rate 0.0313 kg/ha)
0.0: Preemergence herbicidal rating ECHCG [1] | Preemergence herbicidal rating CASOB [4] | Preemergence herbicidal rating GALAP [7] | Preemergence herbicidal rating ORYSAT [10] | herbicidal effect rating, ECHORC ([11]; 0.0313 kg/ha) | herbicidal effect rating, ECHORC ([11]; 0.0625 kg/ha) | herbicidal effect rating, ECHORC ([11]; 0.1250 kg/ha) | herbicidal effect rating, CYPIR ([12]; 0.0313 kg/ha) | herbicidal effect rating, CYPIR ([12]; 0.0625 kg/ha) | herbicidal effect rating, CYPIR ([12]; 0.1250 kg/ha) | Preemergence herbicidal rating SETVI [16] | herbicidal rating GALAP ([17]; rate 0.0156 kg/ha) | herbicidal rating GALAP ([17]; rate 0.0313 kg/ha) | herbicidal rating GALAP ([17]; rate 0.0625 kg/ha) | herbicidal rating SETVI ([18]; rate 0.0156 kg/ha) | herbicidal effect rating, CYPSE ([19]; 0.0313 kg/ha) | herbicidal effect rating, CYPSE ([19]; 0.1250 kg/ha) | Preemergence herbicidal rating TRZAWR [21] | herbicidal rating CHEAL ([22]; rate 0.0156 kg/ha) | Preemergence herbicidal rating ZEAMX [23] | herbicidal effect rating, SAGPY ([25]; 0.0313 kg/ha) | herbicidal effect rating, SAGPY ([25]; 0.0625 kg/ha) | herbicidal effect rating, SAGPY ([25]; 0.1250 kg/ha) | herbicidal rating CASOB ([27]; rate 0.0156 kg/ha)
0.5: herbicidal rating ORYSAT ([8]; rate 0.0156 kg/ha)
4.5: herbicidal rating TRZAWR ([28]; rate 0.0156 kg/ha)
7.0: herbicidal effect rating, MOOVA ([2]; 0.2500 kg/ha) | herbicidal rating ECHCG ([15]; rate 0.0625 kg/ha) | herbicidal rating TRZAWR ([28]; rate 0.0625 kg/ha)
9.0: herbicidal rating AMBEL ([13]; rate 0.0156 kg/ha) | herbicidal rating AMBEL ([13]; rate 0.0313 kg/ha) | herbicidal rating AMBEL ([13]; rate 0.0625 kg/ha) | herbicidal rating SETVI ([18]; rate 0.0625 kg/ha) | herbicidal rating IPOHE ([26]; rate 0.0156 kg/ha) | herbicidal rating IPOHE ([26]; rate 0.0313 kg/ha) | herbicidal rating IPOHE ([26]; rate 0.0625 kg/ha) | herbicidal rating ABUTH ([29]; rate 0.0156 kg/ha) | herbicidal rating ABUTH ([29]; rate 0.0313 kg/ha) | herbicidal rating ABUTH ([29]; rate 0.0625 kg/ha)
8.5: herbicidal rating ZEAMX ([3]; rate 0.0625 kg/ha)
5.0: herbicidal effect rating, MOOVA ([2]; 0.0313 kg/ha) | herbicidal rating GLXMAW ([6]; rate 0.0156 kg/ha) | herbicidal rating SETVI ([18]; rate 0.0313 kg/ha) | Preemergence herbicidal rating ABUTH [20]
4.0: herbicidal rating ECHCG ([15]; rate 0.0313 kg/ha) | herbicidal rating CHEAL ([22]; rate 0.0625 kg/ha) | Preemergence herbicidal rating CHEAL [24]
1.0: herbicidal rating ORYSAT ([8]; rate 0.0313 kg/ha) | herbicidal rating CASOB ([27]; rate 0.0313 kg/ha)
6.5: herbicidal rating GLXMAW ([6]; rate 0.0313 kg/ha)
7.5: herbicidal rating ZEAMX ([3]; rate 0.0313 kg/ha) | herbicidal rating GLXMAW ([6]; rate 0.0625 kg/ha)
2.0: herbicidal rating ORYSAT ([8]; rate 0.0625 kg/ha) | herbicidal effect rating, ECHORC ([11]; 0.2500 kg/ha) | herbicidal effect rating, CYPIR ([12]; 0.2500 kg/ha) | herbicidal rating ECHCG ([15]; rate 0.0156 kg/ha)
